Measured values as given in EP0476645B1, “Calcium uptake inhibitors” (MERRELL DOW PHARMACEUTICALS INC., priority 1990, dated 1992).
Like-named read-outs stand apart in the source and are kept apart here.

Assays:
[1] = tested on: Rat PMNL; test: Superoxide anion (SOA) production by stimulated PMNL; type: cell-based; conditions: for inhibition of superoxide anion production: PMA and OZ stimulus, result in words; for inhibition at 1 µM / inhibition at 3 µM / inhibition at 10 µM / inhibition at 30 µM / inhibition at 100 µM: Rattus norvegicus, PMNL, inhibition of superoxide anion production; for inhibition at 1 µM: 1 µM compound; for inhibition at 3 µM: 3 µM compound; for inhibition at 10 µM: 10 µM compound; for inhibition at 30 µM: 30 µM compound; for inhibition at 100 µM: 100 µM compound
Experimental: (§1) Rat PMNL were obtained from exudates resulting from peritoneal injection of 6 mL of 8% sodium caseinate. Eighteen hours after injection rats were killed by carbon dioxide inhalation and the peritoneal cavity lavaged with Hank's balanced salt solution (HBSS). After concentration of the PMNL by centrifugation, contaminating erythrocytes were removed by hypotonic lysis. The PMNL were then washed twice by centrifugation (400 x g for 10 minutes) and resuspended in HBSS. Cell viability was greater than 90% by Trypan Blue exclusion and greater than 90% of the cells were PMNL by Wright-Giemsa stain.
Aliquots (50 µl) of a rat PMNL suspension (2 x 10⁷ cells/mL in HBSS) were incubated with 50 µl of HBSS containing vehicle (0.3% DMSO) or compound for 30 minutes at 37°C as above. One hundred microliters of buffer containing 5.98 mg/mL of cytochrome C (Sigma Type III) and 0.1 mg/mL catalase, plus the compounds where appropriate, were then added to each sample. A blank for spectrophotometric measurement, containing unstimulated cells in the presence of cytochrome C, catalase and SOD, was also prepared. To activate the PMNL, 75 µl of PMA or OZ were added to achieve the final concentration of cell activator (plus vehicle or inhibitor as described above for MPO release) and the cells further incubated at 37°C for 60 minutes. The activation was terminated by centrifugation at 600 x g for 5 minutes at 4°C. Aliquots (200 µl) of supernatant were then transferred to a second, flat-well microtiter plate and measured spectrophotometrically at 550 nm. […]

[2] = tested on: Rat PMNL; test: Measurement of intracellular calcium in fMLP-stimulated PMNL preloaded with Fura-2; type: cell-based; conditions: fMLP stimulus, preincubation with compound 15 minutes at 37°C, concentrations in figure 1
Experimental: as §1
Intracellular calcium levels were obtained using Fura-2 as fluorescent indicator (Grynkiewicz et al., 1985). Fura-2 was loaded into PMNL as the acetoxymethyl ester (Fura-2/AM) using the method of Korchak et al., (1988). Specifically, 1 X 10⁸ PMNL/mL were incubated in HBSS with 10 µM Fura-2/AM for 10 minutes at 37°C. The cells suspension was then diluted ten fold with HBSS and further incubated for another 20 minutes. The cells were then centrifuged (400 x g for 8 minutes at 25°C) and the PMNL (1 x 10⁷ cells/mL) resuspended in HBSS containing 1% bovine serum albumin. Cells were stored at room temperature and used within 3 hours.
Intracellular calcium level determinations were made using a dual wavelength spectrofluorometer (Photon Technology International, New Brunswick, NJ). Two mL of PMNL suspension (1 x 10⁷ cells/mL) were stirred magnetically at 37°C. Cells were preincubated with the compounds for 15 minutes at 37°C prior to activation. Where compounds were dissolved in DMSO and added directly, the DMSO never exceeded 0.3% in the final cell suspension. Total change in volume with addition of compounds or vehicle and stimuli never exceeded 3%. Intracellular calcium concentrations were calibrated by setting a maximum calcium level in the cells with the addition of 7 µM ionomycin to PMNL in HBSS containing 1% BSA. This was followed by treatment with 20 mM EGTA for 1 hour to obtain a minimum calcium level. […]

[3] = PMA stimulus, read-out: PMA/SOA
[4] = opsonized zymosan stimulus, read-out: OZ/SOA

SMILES | inhibition of superoxide anion production [1] | inhibition at 1 µM [1, 3] [%] | inhibition at 3 µM [1, 3] [%] | inhibition at 10 µM [1, 3] [%] | inhibition at 30 µM [1, 3] [%] | inhibition at 100 µM [1, 3] [%] | inhibition at 1 µM [1, 4] [%] | inhibition at 3 µM [1, 4] [%] | inhibition at 10 µM [1, 4] [%] | inhibition at 30 µM [1, 4] [%] | inhibition at 100 µM [1, 4] [%] | suppression of the second wave of intracellular calcium changes [2]
O=C(C#Cc1ccncc1)c1ccccc1 [MDL 101,098, 1-Phenyl-3-(4-pyridinyl)-2-propyne-1-one] | inhibited in a dose dependent fashion | -30.7 | -4.3 | 29.1 | 70 | 97.2 | -18 | -7.5 | 20.3 | 61.5 | 115 | selective concentration-dependent suppression
CN(C)c1ccc(C(=O)C#Cc2ccncc2)cc1 [MDL 102,175, 1-(4-Dimethylaminophenyl)-3-(4-pyridinyl)-2-propyne-1-one] | inhibited in a dose dependent fashion | -20.2 | 13.5 | 49.7 | 77.7 | 100 | -15 | 15.4 | 44.1 | 75.7 | 89.8 | selective concentration-dependent suppression
